Data as given in PubChem BioAssay AID1259407 (Chemical Carcinogenesis Research Information System (CCRIS), 2018).
Active and inactive are the calls of the source. How the calls were made is not given here.

Tested on: CCRIS mutagenicity, Ames/micronucleus/aberration tests
Test: CCRIS mutagenicity studies

[N-]=[N+]=[N-]
mutagenic call (Test System: AMES SALMONELLA TYPHIMURIUM, Strain/Indicator: TA97, Metabolic Activation: NONE, Method: STANDARD PLATE): inactive; negative | mutagenic call (Test System: AMES SALMONELLA TYPHIMURIUM, Strain/Indicator: TA97, Metabolic Activation: RAT, LIVER, S-9, AROCLOR 1254, Method: STANDARD PLATE): inactive; negative | mutagenic call (Test System: AMES SALMONELLA TYPHIMURIUM, Strain/Indicator: TA98, Metabolic Activation: HAMSTER, LIVER, S-9, AROCLOR 1254 (10%), Method: PREINCUBATION): inactive; negative | mutagenic call (Test System: AMES SALMONELLA TYPHIMURIUM, Strain/Indicator: TA98, Metabolic Activation: NONE, Method: PREINCUBATION): inactive; negative | mutagenic call (Test System: AMES SALMONELLA TYPHIMURIUM, Strain/Indicator: TA98, Metabolic Activation: NONE, Method: SPIRAL ASSAY): inactive; negative | mutagenic call (Test System: AMES SALMONELLA TYPHIMURIUM, Strain/Indicator: TA98, Metabolic Activation: NONE, Method: STANDARD PLATE): inactive; negative | mutagenic call (Test System: AMES SALMONELLA TYPHIMURIUM, Strain/Indicator: TA98, Metabolic Activation: RAT, LIVER, S-9, ACRYLAMIDE, Method: STANDARD PLATE): active; positive | mutagenic call (Test System: AMES SALMONELLA TYPHIMURIUM, Strain/Indicator: TA98, Metabolic Activation: RAT, LIVER, S-9, AROCLOR 1254 (10%), Method: PREINCUBATION): inactive; negative | mutagenic call (Test System: AMES SALMONELLA TYPHIMURIUM, Strain/Indicator: TA98, Metabolic Activation: RAT, LIVER, S-9, AROCLOR 1254, Method: SPIRAL ASSAY): inactive; negative | mutagenic call (Test System: AMES SALMONELLA TYPHIMURIUM, Strain/Indicator: TA98, Metabolic Activation: RAT, LIVER, S-9, AROCLOR 1254, Method: STANDARD PLATE): inactive; negative | mutagenic call (Test System: AMES SALMONELLA TYPHIMURIUM, Strain/Indicator: TA100, Metabolic Activation: HAMSTER, LIVER, S-9, AROCLOR 1254 (10%), Method: PREINCUBATION): active; positive | mutagenic call (Test System: AMES SALMONELLA TYPHIMURIUM, Strain/Indicator: TA100, Metabolic Activation: NONE, Method: PREINCUBATION): active; positive | mutagenic call (Test System: AMES SALMONELLA TYPHIMURIUM, Strain/Indicator: TA100, Metabolic Activation: NONE, Method: SPIRAL ASSAY): active; positive | mutagenic call (Test System: AMES SALMONELLA TYPHIMURIUM, Strain/Indicator: TA100, Metabolic Activation: RAT, LIVER, S-9, ACRYLAMIDE, Method: STANDARD PLATE): active; positive | mutagenic call (Test System: AMES SALMONELLA TYPHIMURIUM, Strain/Indicator: TA100, Metabolic Activation: RAT, LIVER, S-9, AROCLOR 1254 (10%), Method: PREINCUBATION): active; positive | mutagenic call (Test System: AMES SALMONELLA TYPHIMURIUM, Strain/Indicator: TA100, Metabolic Activation: RAT, LIVER, S-9, AROCLOR 1254, Method: SPIRAL ASSAY): active; positive | mutagenic call (Test System: AMES SALMONELLA TYPHIMURIUM, Strain/Indicator: TA100, Metabolic Activation: RAT, LIVER, S-9, PCB, Method: PREINCUBATION): active; positive | mutagenic call (Test System: AMES SALMONELLA TYPHIMURIUM, Strain/Indicator: TA1530, Metabolic Activation: NONE, Method: STANDARD PLATE): active; positive | mutagenic call (Test System: AMES SALMONELLA TYPHIMURIUM, Strain/Indicator: TA1535, Metabolic Activation: HAMSTER, LIVER, S-9, AROCLOR 1254 (10%), Method: PREINCUBATION): active; positive | mutagenic call (Test System: AMES SALMONELLA TYPHIMURIUM, Strain/Indicator: TA1535, Metabolic Activation: NONE, Method: PREINCUBATION): active; positive | mutagenic call (Test System: AMES SALMONELLA TYPHIMURIUM, Strain/Indicator: TA1535, Metabolic Activation: NONE, Method: SPIRAL ASSAY): active; positive | mutagenic call (Test System: AMES SALMONELLA TYPHIMURIUM, Strain/Indicator: TA1535, Metabolic Activation: NONE, Method: STANDARD PLATE): active; positive | mutagenic call (Test System: AMES SALMONELLA TYPHIMURIUM, Strain/Indicator: TA1535, Metabolic Activation: RAT, LIVER, S-9, AROCLOR 1254 (10%), Method: PREINCUBATION): active; positive | mutagenic call (Test System: AMES SALMONELLA TYPHIMURIUM, Strain/Indicator: TA1535, Metabolic Activation: RAT, LIVER, S-9, AROCLOR 1254, Method: SPIRAL ASSAY): active; positive | mutagenic call (Test System: AMES SALMONELLA TYPHIMURIUM, Strain/Indicator: TA1535, Metabolic Activation: RAT, LIVER, S-9, AROCLOR 1254, Method: STANDARD PLATE): active; positive | mutagenic call (Test System: AMES SALMONELLA TYPHIMURIUM, Strain/Indicator: TA1537, Metabolic Activation: HAMSTER, LIVER, S-9, AROCLOR 1254 (10%), Method: PREINCUBATION): inactive; negative | mutagenic call (Test System: AMES SALMONELLA TYPHIMURIUM, Strain/Indicator: TA1537, Metabolic Activation: NONE, Method: PREINCUBATION): inactive; negative | mutagenic call (Test System: AMES SALMONELLA TYPHIMURIUM, Strain/Indicator: TA1537, Metabolic Activation: NONE, Method: STANDARD PLATE): inactive; negative | mutagenic call (Test System: AMES SALMONELLA TYPHIMURIUM, Strain/Indicator: TA1537, Metabolic Activation: RAT, LIVER, S-9, AROCLOR 1254 (10%), Method: PREINCUBATION): inactive; negative | mutagenic call (Test System: AMES SALMONELLA TYPHIMURIUM, Strain/Indicator: TA1537, Metabolic Activation: RAT, LIVER, S-9, AROCLOR 1254, Method: STANDARD PLATE): inactive; negative | mutagenic call (Test System: AMES SALMONELLA TYPHIMURIUM, Strain/Indicator: TA1538, Metabolic Activation: HAMSTER, LIVER, S-9, AROCLOR 1254 (10%), Method: PREINCUBATION): inactive; negative | mutagenic call (Test System: AMES SALMONELLA TYPHIMURIUM, Strain/Indicator: TA1538, Metabolic Activation: NONE, Method: PREINCUBATION): inactive; negative | mutagenic call (Test System: AMES SALMONELLA TYPHIMURIUM, Strain/Indicator: TA1538, Metabolic Activation: RAT, LIVER, S-9, AROCLOR 1254 (10%), Method: PREINCUBATION): inactive; negative | mutagenic call (Test System: Ames Salmonella typhimurium, Strain/Indicator: TA1975P, Metabolic Activation: None, Method: Preincubation): active; positive (at higher doses) | mutagenic call (Test System: E. COLI, Strain/Indicator: AB2500, Metabolic Activation: NONE, Method: STANDARD PLATE): inactive; negative | mutagenic call (Test System: E. COLI, Strain/Indicator: WP2 UVRA, Metabolic Activation: HAMSTER, LIVER, S-9, AROCLOR 1254, Method: STANDARD PLATE): inactive; negative | mutagenic call (Test System: E. COLI, Strain/Indicator: WP2 UVRA, Metabolic Activation: HAMSTER, LIVER, S-9, Method: STANDARD PLATE): inactive; negative | mutagenic call (Test System: E. COLI, Strain/Indicator: WP2 UVRA, Metabolic Activation: MOUSE, LIVER, S-9, AROCLOR 1254, Method: STANDARD PLATE): inactive; negative | mutagenic call (Test System: E. COLI, Strain/Indicator: WP2 UVRA, Metabolic Activation: MOUSE, LIVER, S-9, Method: STANDARD PLATE): inactive; negative | mutagenic call (Test System: E. COLI, Strain/Indicator: WP2 UVRA, Metabolic Activation: NONE, Method: STANDARD PLATE): inactive; negative | mutagenic call (Test System: E. COLI, Strain/Indicator: WP2 UVRA, Metabolic Activation: RAT, LIVER, S-9, AROCLOR 1254, Method: STANDARD PLATE): inactive; negative | mutagenic call (Test System: E. COLI, Strain/Indicator: WP2 UVRA, Metabolic Activation: RAT, LIVER, S-9, Method: STANDARD PLATE): inactive; negative | mutagenic call (Test System: MOUSE LYMPHOMA, Strain/Indicator: L5178Y (TK+/TK-), Metabolic Activation: NONE, Method: SUSPENSION/PLATE): active; positive

CNc1ccccc1C(=O)OC
mutagenic call (Test System: AMES SALMONELLA TYPHIMURIUM, Strain/Indicator: TA97, Metabolic Activation: NONE, Method: PREINCUBATION): inactive; negative | mutagenic call (Test System: AMES SALMONELLA TYPHIMURIUM, Strain/Indicator: TA97, Metabolic Activation: RAT, LIVER, S-9, AROCLOR 1254, Method: PREINCUBATION): inactive; negative | mutagenic call (Test System: AMES SALMONELLA TYPHIMURIUM, Strain/Indicator: TA102, Metabolic Activation: NONE, Method: PREINCUBATION): inactive; negative | mutagenic call (Test System: AMES SALMONELLA TYPHIMURIUM, Strain/Indicator: TA102, Metabolic Activation: RAT, LIVER, S-9, AROCLOR 1254, Method: PREINCUBATION): inactive; negative | mutagenic call (Test System: UDS RODENT HEPATOCYTES, Strain/Indicator: THY INCORP (NON-S-PHASE), Metabolic Activation: NONE, Method: AUTORADIOGRAPHY): inactive; negative
